Drawing on ChEMBL document CHEMBL1146676, “3-Amino-2-hydroxyamides and related compounds as inhibitors of methionine aminopeptidase-2” (Bioorg Med Chem Lett, 2004), this text covers IC50 for 65 compounds.

The structures appear in SMILES notation.

Methionine aminopeptidase 2, sequence (P50579 whole entry): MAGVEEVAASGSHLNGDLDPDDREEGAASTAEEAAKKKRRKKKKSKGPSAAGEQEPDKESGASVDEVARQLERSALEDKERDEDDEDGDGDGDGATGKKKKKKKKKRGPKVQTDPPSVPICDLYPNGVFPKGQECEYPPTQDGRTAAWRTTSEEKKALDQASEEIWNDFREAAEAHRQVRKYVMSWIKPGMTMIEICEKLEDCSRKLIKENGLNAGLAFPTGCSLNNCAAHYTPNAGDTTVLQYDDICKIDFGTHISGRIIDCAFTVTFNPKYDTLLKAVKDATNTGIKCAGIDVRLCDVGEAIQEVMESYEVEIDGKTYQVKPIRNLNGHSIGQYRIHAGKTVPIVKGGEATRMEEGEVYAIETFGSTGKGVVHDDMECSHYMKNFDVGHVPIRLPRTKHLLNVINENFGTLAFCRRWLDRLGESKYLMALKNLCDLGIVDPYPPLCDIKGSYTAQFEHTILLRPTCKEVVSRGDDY

The target in one test is Methionine aminopeptidase 1 (Homo sapiens, UniProt P53582). As to the kind of experiment: Inhibitory activity against human methionine aminopeptidase-1.
`CCCC[C@@H](N)C(O)C(=O)N[C@@H](C)C(=O)OCC` (stereo partly specified) showed an IC50 of 100 µM. In turn, `Cc1ccc(NNC(=O)[C@@H](O)[C@H](N)CCc2ccccc2)cc1` displayed an IC50 of 16 µM.

Regarding `Cc1ccc(NNC(=O)[C@@H](O)[C@H](N)CSCC(C)C)cc1`, the IC50 is 6.8 µM. Still for that read-out and setting: under `Cc1ccc(NNC(=O)[C@@H](O)[C@H](N)CC2CCCCC2)cc1` stands 14 µM; under `N[C@H](CC1CCCCC1)[C@H](O)C(=O)NCc1ccc2ccccc2c1`, 12 µM; under `N[C@H](C1CCCCC1)[C@H](O)C(=O)NNC(=O)c1cccc(Cl)c1`, 46 µM. Still for that read-out and setting: next, `CCOC(=O)[C@H](C)NC(=O)C(O)[C@H](N)CCSCC` (stereo partly specified): 69 µM; `CCCSC[C@@H](N)[C@H](O)C(=O)NCCc1ccc(Cl)cc1Cl`: 24 µM; `CCSCC[C@@H](N)[C@H](O)C(=O)NNC(=O)c1cccc(Cl)c1`: 8.7 µM. Still for that read-out and setting: under `CCOC(=O)C(C)(C)NC(=O)[C@@H](O)[C@H](N)CC1CCCCC1` stands more than 100 µM; under `CCOC(=O)[C@H](C)NC(=O)[C@@H](O)[C@H](N)CC1CCCCC1`, 84 µM; under `CC(C)SCC[C@@H](N)[C@H](O)C(=O)N(C)Cc1cccc2ccccc12`, 81 µM. As to `N[C@H](C1CCCCC1)C(O)C(=O)NOc1ccccc1` (stereo partly specified), the IC50 stood at 95 µM. Still for that read-out and setting: next, `N[C@H](CC1CCCCC1)[C@H](O)C(=O)NNc1cccc2ccccc12`: 58 µM; `CC(C)SCC[C@@H](N)[C@H](O)C(=O)NNC(=O)c1cccc(Cl)c1`: 56 µM; `N[C@H](CCc1ccccc1)C(O)C(=O)NOc1ccccc1` (single isomer, unassigned): 13 µM. On the same count and under the same terms, under `CC(C)CSC[C@@H](N)[C@H](O)C(=O)N(C)Cc1cccc2ccccc12` stands 19 µM. The same measure, in the same setting: under `N[C@H](CSCC1CCCCC1)[C@H](O)C(=O)NCCc1ccc(Cl)cc1Cl` stands more than 100 µM. `CCOC(=O)[C@H](C)NC(=O)C(O)[C@H](N)CSC(C)(C)C` (stereo partly specified) came in with an IC50 of 14 µM. Compound `N[C@H](C1CCCCC1)[C@H](O)C(=O)NNc1cccc2ccccc12` showed an IC50 of 89 µM. This IC50 is about 6.4-fold higher than that of the compound before. Still for that read-out and setting: next, `CC(C)CSC[C@@H](N)[C@H](O)C(=O)NOc1ccccc1`: 1.5 µM. As for `N[C@H](CCc1ccccc1)[C@H](O)C(=O)N[C@@H](CO)c1ccccc1`, it took 75 µM to reach half-maximal inhibition (IC50). This IC50 lies about 50-fold higher than the previous one.

The compound `CC(C)SCC[C@@H](N)C(O)C(=O)NCCc1ccc(Cl)cc1Cl` (single isomer, unassigned) registered an IC50 of 69 µM. The compound `CCOC(=O)[C@H](C)NC(=O)C(O)[C@H](N)CC1CCCCC1` (stereo partly specified) yielded an IC50 of 84 µM. The IC50 values of the last two compounds are within 1.5-fold of each other. The same measure, in the same setting: next, `CCCSC[C@@H](N)[C@H](O)C(=O)NOc1ccccc1`: 1.7 µM; `CC(C)CSC[C@@H](N)[C@H](O)C(=O)NNc1cccc2ccccc12`: 34 µM; `CN(Cc1cccc2ccccc12)C(=O)[C@@H](O)[C@H](N)CC1CCCCC1`: 78 µM. Still for that read-out and setting: next, `CCCSC[C@@H](N)C(O)C(=O)N[C@@H](C)C(=O)OCC` (stereo partly specified): 57 µM; `N[C@H](CC1CCCCC1)[C@H](O)C(=O)NNC(=O)c1ccc2ccccc2c1`: 63 µM.

In turn, `CC(NC(=O)[C@@H](O)[C@H](N)CC1CCCCC1)c1ccc2ccccc2c1` (stereo partly specified) gave an IC50 of 5.3 µM. Against the preceding compound, the IC50 is about 12-fold lower. On the same count and under the same terms, under `N[C@H](C1CCCCCCC1)C(O)C(=O)NOc1ccccc1` (single isomer, unassigned) stands more than 100 µM; under `CC(C)CSC[C@@H](N)[C@H](O)C(=O)N[C@@H](CO)c1ccccc1`, 11 µM; under `N[C@H](CC1CCCCC1)[C@H](O)C(=O)NOc1ccccc1`, 20 µM.

Turning to `CCSCC[C@@H](N)[C@H](O)C(=O)NNc1cccc2ccccc12`, it took 8.9 µM to reach half-maximal inhibition (IC50). This IC50 is about 2.2-fold lower than that of the compound before. Take `CCOC(=O)[C@H](C)NC(=O)C(O)[C@H](N)CCc1ccccc1` (stereo partly specified): the IC50 amounted to 101 µM. The same measure, in the same setting: under `CCCSC[C@@H](N)[C@H](O)C(=O)NNc1ccc(C)cc1` stands 5 µM; under `CN(Cc1cccc2ccccc12)C(=O)[C@@H](O)[C@H](N)CCc1ccccc1`, more than 100 µM. The same measure, in the same setting: under `CC(C)SCC[C@@H](N)C(O)C(=O)NOc1ccccc1` (single isomer, unassigned) stands 4.7 µM; under `N[C@H](CC1CCCCC1)[C@H](O)C(=O)NNC(=O)c1cc(Cl)ccc1Cl`, more than 100 µM. `N[C@H](CC1CCCCC1)[C@H](O)C(=O)N[C@@H](CO)c1ccccc1` registered an IC50 of 68 µM. `N[C@H](CCc1ccccc1)[C@H](O)C(=O)NNc1cccc2ccccc12` returned an IC50 of 93 µM. The compound `CC(C)SCC[C@@H](N)[C@H](O)C(=O)N[C@@H](CO)c1ccccc1` yielded an IC50 of 32 µM. `C[C@H](NC(=O)[C@@H](O)[C@H](N)CSCC1CCCCC1)c1cccc2ccccc12` showed an IC50 of 45 µM.

Regarding `CCSCC[C@@H](N)[C@H](O)C(=O)N(C)Cc1cccc2ccccc12`, the IC50 is 12 µM. Regarding `Cc1ccc(NNC(=O)[C@@H](O)[C@H](N)CCSC(C)C)cc1`, the IC50 stood at 11 µM. `CCOC(=O)[C@H](C)NC(=O)C(O)[C@H](N)CCC1CCCCC1` (stereo partly specified) had an IC50 of 137 µM. The same measure, in the same setting: next, `C[C@H](NC(=O)[C@@H](O)[C@H](N)CC1CCCCC1)C(=O)O`: more than 100 µM; `CCOC(=O)[C@@H](C)NC(=O)[C@@H](O)[C@H](N)CC1CCCCC1`: more than 100 µM; `CCOC(=O)[C@H](C)NC(=O)C(O)[C@H](N)CSCC(C)C` (stereo partly specified): 66 µM. `CCCSC[C@@H](N)[C@H](O)C(=O)NNC(=O)c1cccc(Cl)c1`: the IC50 stood at 11 µM. The same measure, in the same setting: under `N[C@H](CC1CCCCC1)[C@H](O)C(=O)NCCc1ccc(Cl)cc1Cl` stands 63 µM; under `CCSCC[C@@H](N)[C@H](O)C(=O)NNC(=O)c1ccc2ccccc2c1`, 15 µM.

The compound `CC(C)SCC[C@@H](N)[C@H](O)C(=O)NNC(=O)c1ccc2ccccc2c1` displayed an IC50 of 18 µM.

`COc1cccc(NC(=O)[C@@H](O)[C@H](N)CC2CCCCC2)c1` yielded an IC50 of 90 µM. Against the preceding compound, the IC50 is about 5-fold higher.

For the compound `CCCSC[C@@H](N)[C@H](O)C(=O)N[C@@H](CO)c1ccccc1`, the midpoint of inhibition, the IC50, lay at 12 µM.

In turn, `CCOC(=O)[C@H](C)NC(=O)C(O)[C@H](N)CSC(C)C` (stereo partly specified) displayed an IC50 of 13 µM. Regarding `CCSCC[C@@H](N)[C@H](O)C(=O)NOc1ccccc1`, 1.3 µM corresponded to half-maximal inhibition (IC50).

For `CCOC(=O)[C@H](C)NC(=O)C(O)[C@H](N)CCSC` (stereo partly specified), the midpoint of inhibition, the IC50, lay at 63 µM. Same read-out and setting: under `CCOC(=O)[C@H](C)NC(=O)C(O)[C@H](N)CSCC1CCCCC1` (stereo partly specified) stands more than 100 µM. For `N[C@H](CC1CCCCC1)[C@H](O)C(=O)NNC(=O)c1cccc(Cl)c1`, the IC50 is more than 100 µM.

Consider `N[C@H](C1CCCCC1)[C@H](O)C(=O)N[C@@H](CO)c1ccccc1`, for which the IC50 was found to be 79 µM. In other words, the double-digit micromolar range. The same measure, in the same setting: under `CC(C)CSC[C@@H](N)[C@H](O)C(=O)NCCc1ccc(Cl)cc1Cl` stands 53 µM; under `CCSCC[C@@H](N)[C@H](O)C(=O)NNc1ccc(C)cc1`, 1.3 µM; under `C[C@H](NC(=O)C(O)[C@H](N)CCc1ccccc1)c1cccc2ccccc12` (single isomer, unassigned), 12 µM.

Another test is filed under the species Homo sapiens. Briefly: Inhibitory activity against proliferation of human microvascular endothelial cell.
As to `CC(C)SCC[C@@H](N)[C@H](O)C(=O)NNC(=O)c1cccc(Cl)c1`, the IC50 turned out to be 100 nM.

The next test has as its target Methionine aminopeptidase 2 (Homo sapiens, UniProt P50579). As to the kind of experiment: Inhibitory activity against human methionine aminopeptidase-2.
The compound `CC(C)[C@H](C)NC(=O)[C@@H](O)[C@H](N)CC1CCCCC1` yielded an IC50 of more than 100 µM.
